Entries after “also recorded” stand apart in the source; their conditions may differ. Blank lines part the entries; values can stand above or below the compound they belong to.
Key:
[1] = test system: wild type mouse embryonic fibroblast cells (MEF/WT); assay: Apoptosis, FITC-Annexin V/PI assay, MEF/WT; assay type: cell-based; conditions: 30 μM
Experimental: (§1) Wild-type MEF and DKO/MEF were seeded in 24-well plate at a seeding density of half a million per well (in 1 ml of DMEM medium supplemented by 10% FCS). Next day, compound was added to wild-type and DKO cells at final concentration of 0, 2.5, 5.0, 7.5, 10 and 30 μM. On the following day, floating cells were pooled with adherent cells harvested after brief incubation with 0.25% Trypsin/EDTA solution (Gibco/In-Vitrogen Inc.). Cells were centrifuged and supernatant was discarded, and cell pellet was re-suspended with 0.2 ml of Annexin-V binding buffer, followed by addition of 1 μl Annexin-FITC and 1 μl PI (propidium iodide). The percentage of viable cells was determined by a 3-color FACSort instrument and data analyzed by Flow-Jo program, scoring Annexin V-negative, PI-negative as viable cells.

[2] = Cell membrane permeability (PAMPA, LogPe); assay type: in vitro ADME; conditions: compared to 12-14
Text: (§2) Next, we examined the pharmacological properties of the isomers as chirality could greatly affect such properties due to stereoselective metabolism. To test the pharmacological properties of diastereoisomers 11-14, we determined their in vitro rat plasma stability, rat microsomal stability, and cell membrane permeability (Table 4).

[3] = test system: Bcl-2 transgenic mice (B6Bcl2); assay: Bcl-2 transgenic mice, spleen weight; assay type: in vivo, mouse; conditions: for in vivo activity in Bcl-2 transgenic mice: single i.p. 42 mg/kg
Experimental: Transgenic mice expressing Bcl-2 have been described as the B6 line.^48 The BCL-2 transgene represents a minigene version of a t(14;18) translocation in which the human BCL-2 gene is fused with the immunoglobulin heavy-chain (IgH) locus and associated IgH enhancer. The transgene was propagated on the Balb/c background.
After 24 hours, B6Bcl2 mice were sacrificed by intraperitoneal injection of lethal dose of Avertin. Spleen was removed and weighed.

[4] = test system: Bax/Bak double knockout MEF cells (MEF/DKO); assay: Apoptosis, FITC-Annexin V/PI assay, MEF/DKO; assay type: cell-based, mouse; conditions: for toxicity in MEF/DKO cells: 30 μM, FITC-Annexin V/PI
Experimental: as §1, with “Next day, compound was added to wild-type and DKO cells at final concentration of 0, 2.5, 5.0, 7.5, 10 and 30 μM.” left out

M2182 cells = assay: Prostate cancer xenograft in athymic nude mice; assay type: in vivo, mouse; conditions: for inhibitory effect of tumor size compared with the control group: all doses, i.p. every 2 days
Experimental: Cells were then selected for 2 weeks in 200 μg/ml of hygromycin, and individual colonies were isolated, expanded, and maintained in 5 μg/m1 hygromycin. The overexpression of luciferase in these clones was confirmed by measuring luciferase activity.
M2182-Luc cells (1×10^6) were injected s.c. in 100 μL of PBS in the left and right flanks of male athymic nude mice (NCR^nu/nu, 4 weeks old, 20 g body weight) as described previously.^40 After establishing visible tumors of ˜75-mm^3, requiring ˜5-6 days, compound dissolved in 500 μL of solvent (ethanol/Cremophor EL/saline=10:10:80) were injected intraperitoneally (i.p.). The injections were given every 2 days for a total of nine injections. […] A minimum of five animals was used per experimental condition. For in vivo imaging of tumors, the mice were anesthetized and injected i.p. with 150 mg/kg luciferin and light emitted from each tumor was determined using a Xenogen system with CCD camera with an integration time of 1 min. Luminescence measurements were made using Living Image software (version 2.50.1; Xenogen). At the end of the experiment, the animals were sacrificed, and the tumors were removed and photographed.

[5] = In vitro rat plasma stability; assay type: in vitro ADME
Text: as §2

[6] = Chemical stability at different temperatures; assay type: physicochemical; conditions: compared to 12-14
Bcl-XL [7] = biological target: T1, Bcl-XL (Homo sapiens, UniProt Q07817); assay: NMR binding assays (1D 1H-NMR, 2D [15N,1H]-TROSY), Bcl-XL; conditions: 2D TROSY at ligand/protein ratio 1:1
T1 sequence (Q07817 whole entry): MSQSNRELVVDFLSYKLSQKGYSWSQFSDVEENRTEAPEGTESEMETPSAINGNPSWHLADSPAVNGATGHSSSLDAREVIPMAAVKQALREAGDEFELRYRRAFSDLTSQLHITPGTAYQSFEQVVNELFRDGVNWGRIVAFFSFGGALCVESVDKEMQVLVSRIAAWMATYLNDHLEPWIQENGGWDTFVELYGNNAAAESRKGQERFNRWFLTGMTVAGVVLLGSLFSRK

Mcl-1 = Mcl-1 (Homo sapiens, UniProt Q07820); assay: 2D [15N,1H]-TROSY NMR binding, Mcl-1; conditions: 2D TROSY, ligand/protein ratio of 2:1
Sequence of Mcl-1 (Q07820 whole entry): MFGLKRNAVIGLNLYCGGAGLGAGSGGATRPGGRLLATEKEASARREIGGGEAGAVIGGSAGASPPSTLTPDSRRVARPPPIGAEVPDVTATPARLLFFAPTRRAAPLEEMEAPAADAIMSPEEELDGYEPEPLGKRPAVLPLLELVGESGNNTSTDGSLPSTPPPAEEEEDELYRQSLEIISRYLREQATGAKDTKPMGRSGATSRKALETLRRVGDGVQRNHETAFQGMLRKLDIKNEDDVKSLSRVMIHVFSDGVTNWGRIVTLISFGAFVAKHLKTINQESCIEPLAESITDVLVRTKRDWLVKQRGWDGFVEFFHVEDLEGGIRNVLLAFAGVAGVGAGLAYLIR

[8] = rat, 40 min
Text: as §2

Bcl-XL [9] = biological target: T1, Bcl-XL; assay: Isothermal Titration Calorimetry assay (ITC); assay type: binding; conditions: Kd ratio versus 12-14
H460 cells = assay: Cell viability, ATP-LITE assay, H460; assay type: cell-based, human; conditions: 72 hours of treatment
Experimental: The activity of the compounds against human cancer cell lines (PC3, H460, H1299) were assessed by using the ATP-LITE assay (PerkinElmer). All cells were seeded in either […] or RPMI1640 medium with 5 mM L-glutamine supplemented with 5% fetal bovine serum (Mediatech Inc.), penicillin and streptomycin (Omega). For maintenance, cells were cultured in 5% FBS. Cells plated into 96 well plates at varying initial densities depending on doubling time. […] Compounds were diluted to final concentrations with 0.1% DMSO. Prior to dispensing compounds onto cells, fresh 5% media was placed into wells. Administration of compounds occurred 24 hours after seeding into the fresh media. Cell viability was evaluated using ATP-LITE reagent (PerkinElmer) after 72 hours of treatment. Data were normalized to the DMSO control-treated cells using Prism version 5.01 (Graphpad Software).

[10] = test system: MDA-MB-231 breast cancer cells; conditions: reference 13; read-out: EC50 in killing MDA-MB-231 breast cancer cells; cited from earlier work
[11] = test system: cancer cells that overexpress Mcl-1; conditions: references 32, 36; cited from earlier work
BP3 cell line = assay: Apoptosis, Annexin V-FITC and propidium iodide assay, BP3; assay type: cell-based, human
Experimental: The apoptotic activity of the compounds against BP3 cells was assessed by staining with Annexin V- and propidium iodide (PI). BP3 cell line was cultured in RPMI 1640 medium (Mediatech Inc., Herndon, Va. 20171) containing 10% fetal bovine serum (Mediatech Inc., Herndon, Va. 20171) and Penicillin/Streptomycin (Mediatech Inc., Herndon, Va. 20171). […] The percentage of viable cells was determined by FITC-Annexin V- and propidium iodide (PI)-labeling, using an Apoptosis Detection kit (BioVision Inc.), and analyzing stained cells by flow cytometry (FACSort; Bectin-Dickinson, Inc.; Mountain View, Calif.). Cells that were annexin-V-negative and PI-negative were considered viable.

SMILES: Cc1cc2c(C(=O)NC[C@@H](C)c3ccccc3)c(O)c(O)cc2c(O)c1-c1c(C)cc2c(C(=O)NC[C@H](C)c3ccccc3)c(O)c(O)cc2c1O (atropisomer, axis not shown) [Compound 11]
wild type MEF cells killed [1]: ~70%
cell membrane permeability [2]: superior cell membrane permeability
in vivo activity in Bcl-2 transgenic mice [3]: superior in vivo activity
spleen weight reduction ([3]; single i.p. injection at 42 mg/kg, 24 hours): more than 30%
cytotoxicity against bax−/−bak−/− cells (summary statement) [4]: less cytotoxicity; also recorded: little cytotoxicity
toxicity in MEF/DKO cells [4]: slight toxicity
tumor growth inhibited to % of the tumor volume in the control group (M2182 cells; 3 mg/kg i.p. every 2 days, nine injections): ~60%
inhibition of tumor growth in both flanks (M2182 cells; 5 mg/kg i.p. every 2 days, nine injections): near complete inhibition of tumor growth
inhibitory effect of tumor size compared with the control group (M2182 cells): marked inhibitory effect of tumor size
Plasma stability (T = 1 h) [5]: 41%
chemical stability [6]: better chemical stability
NMR binding to Bcl-XL (Bcl-XL [7]): larger chemical shift perturbations; also recorded: low to submicromolar binding affinity
NMR binding to Mcl-1 (Mcl-1): significant binding
microsomal stability [8]: relatively good microsomal stability
times more potent than other isomers 12-14 in ITC assay (Bcl-XL [9]): 4-20 times

SMILES: Cc1cc2c(C(=O)NCC(C)c3ccccc3)c(O)c(O)cc2c(O)c1-c1c(C)cc2c(C(=O)NCC(C)c3ccccc3)c(O)c(O)cc2c1O (racemic) [Compound 4]
cytotoxicity in MEF/DKO cells compared to isomer 11 ([4]; 3-30 μM): higher cytotoxicity in MEF/DKO cells
inhibitory effect of tumor size (M2182 cells; 10 mg/kg i.p. every 2 days, nine injections): weak inhibitory effect of tumor size
inhibition of tumor growth in both flanks (M2182 cells; 25 mg/kg i.p. every 2 days, nine injections): near complete inhibition of tumor growth
inhibitory effect of tumor size compared with the control group (M2182 cells): marked inhibitory effect of tumor size

SMILES: Cc1cc2c(C(C)C)c(O)c(O)c(C=O)c2c(O)c1-c1c(C)cc2c(C(C)C)c(O)c(O)c(C=O)c2c1O [(+) 1]
EC50 [10]: ~10 µM

SMILES: CN(C)CC[C@H](CSc1ccccc1)Nc1ccc(S(=O)(=O)NC(=O)c2ccc(N3CCN(Cc4ccccc4-c4ccc(Cl)cc4)CC3)cc2)cc1[N+](=O)[O-] [ABT-737]
effectiveness against cancer cells that overexpress Mcl-1 [11]: not effective
apoptosis induction / cytotoxic activity against BP3 cell line (BP3 cell line): no cytotoxic activity

Further lines, with some results ahead:

Plasma stability (T = 1 h) [5]: 28%
SMILES: Cc1cc2c(C(=O)NCC(C)c3ccccc3)c(O)c(O)cc2c(O)c1-c1c(C)cc2c(C(=O)NCC(C)c3ccccc3)c(O)c(O)cc2c1O (single isomer, unassigned) [Compound 12]
in vivo activity in Bcl-2 transgenic mice [3]: weak in vivo activity
plasma stability ([5]; compared to other diastereoisomers): decreased plasma and microsomal stability
microsomal stability [8]: decreased plasma and microsomal stability

Plasma stability (T = 1 h) [5]: 42%
SMILES: Cc1cc2c(C(=O)NCC(C)c3ccccc3)c(O)c(O)cc2c(O)c1-c1c(C)cc2c(C(=O)NCC(C)c3ccccc3)c(O)c(O)cc2c1O (single isomer, unassigned) [Compound 13]

Plasma stability (T = 1 h) [5]: 41%
EC50 (H460 cells): 0.8 ± 0.09 µM
SMILES: Cc1cc2c(C(=O)NCC(C)c3ccccc3)c(O)c(O)cc2c(O)c1-c1c(C)cc2c(C(=O)NCC(C)c3ccccc3)c(O)c(O)cc2c1O (single isomer, unassigned) [Compound 14]
toxicity in MEF/DKO cells [4]: almost equally effective in killing both MEF/WT and MEF/DKO
